The OligoGym collection
Where “and” joins values, the source holds several entries; their conditions need not be identical. Identical values can stand only once. HELM strings list units from the 5' end as sugar, base in round brackets, then linkage (d deoxyribose, r ribose, m 2'-O-methyl, p phosphodiester). Methylation of C is not given here. [moe] = 2'-O-(2-methoxyethyl) (MOE); [cEt] = constrained ethyl (cEt); [sp] = phosphorothioate linkage

Target: HBV
Conditions: ASO

Substance	target mRNA inhibition (HepG2, 0.0092593 µM) [%]	target mRNA inhibition (HepG2, 0.0277778 µM) [%]	target mRNA inhibition (HepG2, 0.07 µM)	target mRNA inhibition (HepG2, 0.0833333 µM) [%]	target mRNA inhibition (HepG2, 0.25 µM) [%]
RNA1{[moe](C)[sp].[moe](G)[sp].d(C)[sp].d(A)[sp].d(G)[sp].d(T)[sp].d(A)[sp].d(T)[sp].d(G)[sp].d(G)[sp].d(A)[sp].[moe](T)[sp].[moe](C)[sp].[moe](G)[sp].[moe](G)[sp].[moe](C)}$$$$V2.0	6	31	76% and 71%	56	80
RNA1{[moe](C)[sp].[moe](T)[sp].[moe](A)[sp].[moe](G)[sp].d(T)[sp].d(A)[sp].d(A)[sp].d(A)[sp].d(C)[sp].d(T)[sp].d(G)[sp].d(A)[sp].d(G)[sp].[moe](C)[sp].[moe](C)[sp].[moe](A)}$$$$V2.0			66% and 65%		
RNA1{[moe](C)[sp].[moe](T)[sp].[moe](G)[sp].d(A)[sp].d(A)[sp].d(C)[sp].d(A)[sp].d(A)[sp].d(A)[sp].d(T)[sp].d(G)[sp].d(G)[sp].d(C)[sp].[cEt](A)[sp].[cEt](C)[sp].[cEt](T)}$$$$V2.0			64% and 74%		
RNA1{[moe](G)[sp].[cEt](A)[sp].[cEt](G)[sp].d(A)[sp].d(G)[sp].d(A)[sp].d(A)[sp].d(G)[sp].d(T)[sp].d(C)[sp].d(C)[sp].d(A)[sp].d(C)[sp].[cEt](C)[sp].[cEt](A)[sp].[moe](C)}$$$$V2.0			65% and 63%		
RNA1{[moe](G)[sp].[cEt](A)[sp].[cEt](G)[sp].d(G)[sp].d(C)[sp].d(C)[sp].d(C)[sp].d(A)[sp].d(C)[sp].d(T)[sp].d(C)[sp].d(C)[sp].d(C)[sp].[cEt](A)[sp].[cEt](T)[sp].[moe](A)}$$$$V2.0	29	63		87	85
RNA1{[moe](G)[sp].[cEt](A)[sp].[cEt](G)[sp].d(G)[sp].d(T)[sp].d(G)[sp].d(A)[sp].d(A)[sp].d(G)[sp].d(C)[sp].d(G)[sp].d(A)[sp].d(A)[sp].[cEt](G)[sp].[cEt](T)[sp].[moe](G)}$$$$V2.0			71%		
RNA1{[moe](G)[sp].[cEt](A)[sp].d(A)[sp].d(C)[sp].d(C)[sp].d(A)[sp].d(C)[sp].d(T)[sp].d(G)[sp].d(A)[sp].d(A)[sp].d(C)[sp].[cEt](A)[sp].[moe](A)[sp].[cEt](A)[sp].[moe](T)}$$$$V2.0			49% and 43%		
RNA1{[moe](G)[sp].[cEt](A)[sp].d(G)[sp].d(A)[sp].d(G)[sp].d(A)[sp].d(A)[sp].d(G)[sp].d(T)[sp].d(C)[sp].d(C)[sp].d(A)[sp].[cEt](C)[sp].[moe](C)[sp].[cEt](A)[sp].[moe](C)}$$$$V2.0			42% and 56%		
RNA1{[moe](G)[sp].[cEt](A)[sp].d(T)[sp].d(G)[sp].d(A)[sp].d(G)[sp].d(G)[sp].d(C)[sp].d(A)[sp].d(T)[sp].d(A)[sp].d(G)[sp].[cEt](C)[sp].[moe](A)[sp].[cEt](G)[sp].[moe](C)}$$$$V2.0			70% and 66%		
RNA1{[moe](G)[sp].[cEt](C)[sp].[cEt](A)[sp].d(G)[sp].d(A)[sp].d(G)[sp].d(G)[sp].d(T)[sp].d(G)[sp].d(A)[sp].d(A)[sp].d(G)[sp].d(C)[sp].[cEt](G)[sp].[cEt](A)[sp].[moe](A)}$$$$V2.0			70%		
RNA1{[moe](G)[sp].[cEt](C)[sp].d(A)[sp].d(T)[sp].d(A)[sp].d(G)[sp].d(C)[sp].d(A)[sp].d(G)[sp].d(C)[sp].d(A)[sp].d(G)[sp].[cEt](G)[sp].[moe](A)[sp].[cEt](T)[sp].[moe](G)}$$$$V2.0			76% and 78%		
RNA1{[moe](G)[sp].[cEt](G)[sp].[cEt](C)[sp].d(A)[sp].d(C)[sp].d(A)[sp].d(G)[sp].d(C)[sp].d(T)[sp].d(T)[sp].d(G)[sp].d(G)[sp].d(A)[sp].[cEt](G)[sp].[cEt](G)[sp].[moe](C)}$$$$V2.0			36% and 39%		
RNA1{[moe](G)[sp].[cEt](T)[sp].[cEt](G)[sp].d(A)[sp].d(A)[sp].d(G)[sp].d(C)[sp].d(G)[sp].d(A)[sp].d(A)[sp].d(G)[sp].d(T)[sp].d(G)[sp].[cEt](C)[sp].[cEt](A)[sp].[moe](C)}$$$$V2.0			68% and 75%		
RNA1{[moe](G)[sp].[cEt](T)[sp].d(C)[sp].d(C)[sp].d(A)[sp].d(C)[sp].d(C)[sp].d(A)[sp].d(C)[sp].d(G)[sp].d(A)[sp].d(G)[sp].[cEt](T)[sp].[moe](C)[sp].[cEt](T)[sp].[moe](A)}$$$$V2.0			51% and 38%		
RNA1{[moe](G)[sp].[cEt](T)[sp].d(G)[sp].d(A)[sp].d(A)[sp].d(G)[sp].d(C)[sp].d(G)[sp].d(A)[sp].d(A)[sp].d(G)[sp].d(T)[sp].[cEt](G)[sp].[moe](C)[sp].[cEt](A)[sp].[moe](C)}$$$$V2.0	18	36	81% and 80%	75	88
RNA1{[moe](G)[sp].[cEt](T)[sp].d(G)[sp].d(C)[sp].d(A)[sp].d(G)[sp].d(A)[sp].d(G)[sp].d(G)[sp].d(T)[sp].d(G)[sp].d(A)[sp].[cEt](A)[sp].[moe](G)[sp].[cEt](C)[sp].[moe](G)}$$$$V2.0	14	33	74% and 83%	70	77
